Laboratory results published in patent US12083101B2, “Biaryl derivatives as YAP/TAZ-TEAD protein-protein interaction inhibitors” (Novartis AG, priority 2020, dated 2024).
Read-outs that look alike come from different tables or passages of the source.

Tests used:
[1] = system: NCI-H2052 Tet-On shYAP_2371 pLenti6 MCAT_Luc cells; assay: Proliferation assay (resazurin), NCI-H2052; format: cell-based; details: 72 hours incubation
Description: (§1) This cell line was also transduced with a Tet-pLKO-puro-based construct mediating tetracycline-inducible expression of a short-hairpin directed against the 3′UTR of the YAP1 mRNA (5′-[…]-3′).
(§2) Stock solutions of compounds were prepared at a concentration of 10 mM in DMSO and stored at 4° C. Where necessary to afford a full dose-response curve, the stock solutions were pre-diluted in DMSO to 1'000-fold the desired reduced start concentration. On the day after cell seeding, eleven 2-fold serial dilutions of each compound were dispensed directly into the cell assay plates using a HP 300D non-contact Digital Dispenser (TECAN, Mannedorf, Switzerland). The final concentration of DMSO was normalized to 0.1% in all wells.
(§3) The functional effect of compounds on cell proliferation was assessed using NCI-H2052 Tet-On shYAP_2371 pLenti6 MCAT_Luc and MKN-45/Ubc-luc cells by quantifying the reducing capacity of live cells using the redox indicator dye resazurin. […] For data analysis, the assay background value determined in wells containing medium, but no cells, was subtracted from all data points. […] The effect of a particular test compound concentration on cell proliferation/viability was expressed as percentage of day 0-corrected fluorescence reading obtained for cells treated with vehicle only (DMSO, final concentration 0.1%), which was set as 100%, whereas the fluorescence reading for wells containing medium only, but no cells, was set as −100%. Compound concentrations leading to half-maximal growth inhibition (GI50) were determined using standard four parameter curve fitting.

[2] = system: MKN-45/Ubc-luc cells; assay: Proliferation assay (resazurin), MKN-45; format: cell-based; details: 72 hours incubation
Description: As a specificity control, MKN-45 cells were stably transduced with a Ubc-Luc reporter construct, in which constitutive expression of firefly luciferase is driven by the promoter of the ubiquitin C housekeeping gene.
as §2, §3

[3] = system: NCI-H2052 Tet-On shYAP_2371 pLenti6 MCAT_Luc cells (YAP-dependent transcription); assay: YAP reporter gene activity assay (MCAT-luciferase), NCI-H2052; format: cell-based; details: 24 hours incubation, BrightGlo luminescence
Description: as §1, §2
The ability of compounds to inhibit YAP-dependent transcription was assessed in NCI-H2052 Tet-On shYAP_2371 pLenti6 MCAT_Luc cells, while specificity (lack of unspecific inhibition of luciferase expression of activity) was assessed in MKN-45/Ubc-luc cells. […] Following incubation for 24 hours at 37° C., compound-mediated modulation of reporter-gene activity was quantified 5 min after addition of 20 μl BrightGlo (Promega, Cat #E2620), by measuring luminescence intensity on a multi-mode plate-reader (TECAN, Männedorf, Switzerland, Integration time 100 ms). For data analysis, the assay background value determined in wells containing medium, but no cells, was subtracted from all data points. Dose-dependent compound effects were expressed as % of vehicle-treated control (luminescence signal produced by cells receiving DMSO only) and IC50s calculated using a four-parametric fit model.

[4] = target: Avi-humanTEAD4 217-434 / Cy5 labeled humanYAP 60-100 (Homo sapiens (Human), UniProt Q15561); assay: TR-FRET YAP-TEAD4 in-vitro biochemical assay; format: binding; details: 1 nM Avi-humanTEAD4 217-434, 20 nM Cy5-humanYAP 60-100, 1 h room temperature
[5] = system: MKN-45/Ubc-luc cells; assay: Reporter gene specificity control (Ubc-luciferase), MKN-45
[6] = read-out: Reporter gene assay MKN-45 IC50, MKN-45/Ubc-luc cells (YAP deleted, specificity control), 24 hours incubation
[7] = Homo sapiens, MKN-45, 24 h, read-out: Reporter gene assay MKN-45 IC50 [μM], MKN-45/Ubc-luc cells (YAP deleted, specificity control), 24 hours incubation

Chain of Avi-humanTEAD4 217-434 / Cy5 labeled humanYAP 60-100 (Q15561 217-434): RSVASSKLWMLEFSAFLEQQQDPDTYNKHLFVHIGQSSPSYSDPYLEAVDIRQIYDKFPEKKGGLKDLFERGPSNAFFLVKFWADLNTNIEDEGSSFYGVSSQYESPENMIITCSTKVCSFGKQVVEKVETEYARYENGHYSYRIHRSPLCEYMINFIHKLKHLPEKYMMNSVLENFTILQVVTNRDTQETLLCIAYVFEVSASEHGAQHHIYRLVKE

SMILES	GI50 [1]	GI50 [2]	IC50 [3]	IC50 [4]	IC50 [5, 6]	GI50 ([1]; Homo sapiens, NCI-H2052, 72 h)	GI50 ([2]; Homo sapiens)	IC50 ([3]; Homo sapiens, NCI-H2052, 24 h)	IC50 [5, 7]
NC(=O)c1ccc(OC(F)F)c(F)c1-c1c(Cl)c(F)cc2c1C[C@@](CN[C@H]1CC[C@@H](O)[C@H](F)C1)(c1ccccc1)O2 (atropisomer, axis not shown) [Example 81b, 2-((2S,4S)-5-chloro-6-fluoro-2-((((1R,3S,4S)-3-fluoro-4-hydroxycyclohexyl)amino)methyl)-2-phenyl-2,3-dihydrobenzofuran-4-yl)-4-(difluoromethoxy)-3-fluorobenzamide]	0.571 µM	> 10 µM	0.316 µM	0.032 µM	> 10 µM	–	–	–	–
COCCOc1ccc(C(N)=O)c(-c2c(Cl)c(F)cc3c2[C@H](C)[C@](c2ccccc2)(C(C)N)O3)c1F (stereo partly drawn) [Example 169, 2-((2S,3S,4S)-2-(1-Aminoethyl)-5-chloro-6-fluoro-3-methyl-2-phenyl-2,3-dihydrobenzofuran-4-yl)-3-fluoro-4-(2-methoxyethoxy)benzamide]	–	–	–	0.007 µM	–	0.246 µM	7.83 µM	0.153 µM	> 10 µM
NC(=O)c1ccc(OC(F)F)c(F)c1-c1c(Cl)ccc2c1[C@H](O)[C@@](CNC1CCC1)(c1ccccc1)O2 (atropisomer, axis not shown) [Example 96, 2-((2S,3S,4S)-5-Chloro-2-((cyclobutylamino)methyl)-3-hydroxy-2-phenyl-2,3-dihydrobenzofuran-4-yl)-4-(difluoromethoxy)-3-fluorobenzamide]	–	–	–	0.005 µM	–	0.188 µM	> 10 µM	0.084 µM	> 10 µM
NC(=O)c1ccc(OCCO)c(F)c1-c1c(Cl)c(F)cc2c1C[C@](c1ccccc1)([C@@H]1CCCN1)N2 (atropisomer, axis not shown) [Example 170, 2-((2S,4S)-5-Chloro-6-fluoro-2-phenyl-2-((S)-pyrrolidin-2-yl)indolin-4-yl)-3-fluoro-4-(2-hydroxyethoxy)benzamide]	–	–	–	0.001 µM	–	0.023 µM	> 8 µM	0.012 µM	> 8 µM
COc1ccc(C(N)=O)c(-c2c(Cl)c(F)cc3c2[C@H](OC)[C@](c2ccccc2)(C2CCCN2)O3)c1F (stereo partly drawn) [Example 165, 2-((2S,3S,4S)-5-chloro-6-fluoro-3-methoxy-2-phenyl-2-(pyrrolidin-2-yl)-2,3-dihydrobenzofuran-4-yl)-3-fluoro-4-methoxybenzamide]	–	–	–	0.005 µM	–	0.131 µM	> 10 µM	0.082 µM	> 10 µM
CNC[C@@]1(c2ccccc2)Cc2c(ccc(Cl)c2-c2c(C(=O)NC)ccc(OC)c2F)O1 (atropisomer, axis not shown) [Example 26, 2-((2S,4S)-5-Chloro-2-((methylamino)methyl)-2-phenyl-2,3-dihydrobenzofuran-4-yl)-3-fluoro-4-methoxy-N-methylbenzamide]	–	–	–	0.021 µM	–	0.31 µM	> 10 µM	0.144 µM	> 20 µM
C[C@]1(O)CC[C@H](NC[C@@]2(c3ccccc3)Cc3c(cc(F)c(Cl)c3-c3c(C(N)=O)ccc(-n4ccnc4)c3F)O2)CC1 (atropisomer, axis not shown) [Example 69a, 2-((2S,4S)-5-chloro-6-fluoro-2-((((trans)-4-hydroxy-4-methylcyclohexyl)amino)methyl)-2-phenyl-2,3-dihydrobenzofuran-4-yl)-3-fluoro-4-(1H-imidazol-1-yl)benzamide]	–	–	–	0.005 µM	–	0.111 µM	> 10 µM	0.08 µM	> 10 µM
COc1cccc([C@@]2(CN)Oc3ccc(Cl)c(-c4c(C(N)=O)ccc(OC(F)F)c4F)c3[C@@H]2O)n1 (atropisomer, axis not shown) [Example 90, 2-((2R,3S,4S)-2-(Aminomethyl)-5-chloro-3-hydroxy-2-(6-methoxypyridin-2-yl)-2,3-dihydrobenzofuran-4-yl)-4-(difluoromethoxy)-3-fluorobenzamide]	–	–	–	0.022 µM	–	1.7 µM	> 10 µM	1.43 µM	> 10 µM
COc1ccc(C(N)=O)c(-c2c(Cl)c(F)cc3c2[C@H](C)[C@@](CN)(c2ccccc2)O3)c1F [Example 176, 2-((2S,3S,4S)-2-(Aminomethyl)-5-chloro-6-fluoro-3-methyl-2-phenyl-2,3-dihydrobenzofuran-4-yl)-3-fluoro-4-methoxybenzamide]	0.021 µM	16 µM	0.018 µM	0.003 µM	11 µM	–	–	–	–
C[C@H]1c2c(ccc(Cl)c2-c2c(C(N)=O)ccc(OC(F)F)c2F)O[C@]1(CN)c1ccccc1 (atropisomer, axis not shown) [Example 103, 2-((2S,3S,4S)-2-(aminomethyl)-5-chloro-3-methyl-2-phenyl-2,3-dihydrobenzofuran-4-yl)-4-(difluoromethoxy)-3-fluorobenzamide]	–	–	–	0.005 µM	–	0.172 µM	> 10 µM	0.108 µM	> 10 µM
CNC[C@]1(c2ccccc2)Oc2cc(F)c(Cl)c(-c3c(C(N)=O)ccc(OC)c3F)c2[C@@H]1COC (atropisomer, axis not shown) [Example 146, 2-((2S,3R,4S)-5-Chloro-6-fluoro-3-(methoxymethyl)-2-((methylamino)methyl)-2-phenyl-2,3-dihydrobenzofuran-4-yl)-3-fluoro-4-methoxybenzamide]	–	–	–	0.003 µM	–	0.023 µM	> 10 µM	0.025 µM	> 10 µM
CNC(=O)c1ccc(OCCO)c(F)c1-c1c(Cl)c(F)cc2c1C[C@](c1ccccc1)(C1CCN1)O2 (stereo partly drawn) [Example 149, 2-((2S,4S)-2-(Azetidin-2-yl)-5-chloro-6-fluoro-2-phenyl-2,3-dihydrobenzofuran-4-yl)-3-fluoro-4-(2-hydroxyethoxy)-N-methylbenzamide]	–	–	–	0.005 µM	–	0.1 µM	> 10 µM	0.096 µM	> 10 µM
C[C@H](O)COc1ccc(C(N)=O)c(-c2c(Cl)c(F)cc3c2[C@H](C)[C@](c2ccccc2)(C2CCCN2)O3)c1F (stereo partly drawn) [Example 167, 2-((2S,3S,4S)-5-chloro-6-fluoro-3-methyl-2-phenyl-2-(pyrrolidin-2-yl)-2,3-dihydrobenzofuran-4-yl)-3-fluoro-4-((S)-2-hydroxypropoxy)benzamide]	–	–	–	0.01 µM	–	0.082 µM	> 10 µM	0.058 µM	> 10 µM
CC(C)(O)C1CC(NC[C@@]2(c3ccccc3)Cc3c(cc(F)c(Cl)c3-c3c(C(N)=O)ccc(OC(F)F)c3F)O2)C1 (single isomer, unassigned) [Example 62a]	0.24 µM	–	0.203 µM	0.016 µM	–	–	> 10 µM	–	> 10 µM
COc1ccc(C(=O)Nc2cccnc2)c(-c2c(Cl)ccc3c2C[C@@](CN)(c2ccccc2)O3)c1F (atropisomer, axis not shown) [Example 25, 2-((2S,4S)-2-(aminomethyl)-5-chloro-2-phenyl-2,3-dihydrobenzofuran-4-yl)-3-fluoro-4-methoxy-N-(pyridin-3-yl)benzamide]	–	–	–	0.005 µM	–	0.145 µM	> 10 µM	0.106 µM	> 10 µM
NC[C@@]1(c2ccccc2)Cc2c(cc(F)c(Cl)c2-c2c(C(N)=O)ccc(OC(F)F)c2F)O1 (atropisomer, axis not shown) [Example 35, 2-((2S,4S)-2-(aminomethyl)-5-chloro-6-fluoro-2-phenyl-2,3-dihydrobenzofuran-4-yl)-4-(difluoromethoxy)-3-fluorobenzamide]	–	–	–	0.009 µM	–	0.31 µM	> 10 µM	0.276 µM	> 10 µM
